Like-named read-outs stand apart in the source and are kept apart here.
Test system: MatTek 300 skin (a skin model constructed from live cells)
Assay: Penetration study using MatTek skin, formulation with vs without cellulose nanofibers, UPLC analysis
Type: in vitro ADME
Experimental: A testing formulation with and without nanocellulose and various skin care actives was prepared. The formulation was prepared by mixing the Phase I components until all of the solids were dissolved (e.g., about 10-15 min). The Phase 2 components were added to the Phase 1 components and mixed until lump free (e.g., about 10 min). The Phase 3 components were pre-mixed until lump free and slowly added to the initial mixture and mixed until uniform (e.g., about 30 min). The Phase 4 components were mixed until uniform and slowly added to the initial mixture and mixed to uniformity (e.g., about 15-20 min). The Phase 5 components were premixed and then added to the mixture and mixed until uniform (e.g., about 15-20 min). The Phase 6 components were added to the mixture under Silverson to adjust the pH to about 5.5 to 6.5 to increase the stability of the AA2G and mixed until lump free (e.g., about 15-20 min). A penetration study was then performed using the base formula without nanocellulose as a control. […] In a 6-well plate, MatTek 300 skin (a skin model constructed from live cells, obtained from MatTek) was placed in the well with 2.00 mL of incubation medium (also provided by MatTek). The medium was removed, and 2.0 mL of phosphate buffer saline/propandiol (PBS/PPD) 1:1 mixture was added. The PBS/PPD mixture was then removed. This washing process was repeated twice. Then 2.0 mL of the PBS/PPD mixture was added as the collection phase. To the top of each skin, 400 μl of a sample was loaded. The skin was then incubated at 37° C. for 72 hours. Finally, the PBS/PPD collection phase was filtered through 0.45 μm PTFE syringe filter into high performance liquid chromatography (HPLC) vials. Waters ACQUITY H ultra-performance liquid chromatography (UPLC) was used to analyze the collected samples from the penetration study.

COc1ccc(CCCc2ccc(O)cc2O)c(OC)c1C [UP302]
penetration efficacy, formulation with cellulose nanofibers vs without (in words) (MatTek 300 skin, 37° C., 72 hours, PBS/PPD collection phase): modulated, reduced, and limited

O=C(c1ccccc1)c1ccccc1 [benzophenone]
penetration efficacy, composition with nanocellulose vs without (in words) (benzophenone 4% (w/w of the total composition), sunscreen formulations): directionally reduced

O=C1O[C@H]([C@@H](O)CO)C(O)=C1O[C@H]1O[C@H](CO)[C@@H](O)[C@H](O)[C@H]1O [AA2G, ascorbic acid 2-glucoside]
penetration efficacy, formulation with cellulose nanofibers vs without (in words): significantly enhanced

CC1=C(/C=C/C(C)=C/C=C/C(C)=C/CO)C(C)(C)CCC1 [Retinol, reference compound]
penetration within the skin, composition with nanocellulose vs without (in words): reduced | rate of release from composition with nanocellulose (in words): slower rate of release

OCCOc1ccccc1 [phenoxyethanol]
penetration efficacy, composition with nanocellulose vs without (in words): not increased
